# Measurements from paper PMC6983056, “Carbazole Alkaloids from Clausena anisum-olens: Isolation, Characterization, and Anti-HIV Evaluation” (Molecules, 2019).
# Legend:
# HIV-1 = tested on: HIV-1; design: method as in PMID 16177980; conditions: cited from earlier work
# [1] = tested on: HIV replication in H9 lymphocytes; design: method as in PMID 31109016, PMID 10021911; conditions: cited from earlier work
# [2] = tested on: human immunodeficiency virus type-1 integrase; conditions: cited from earlier work
# [3] = CytoTox-Glo cytotoxicity assay against MT4 cells; assay type: cell-based; conditions: human, 50% cytotoxic concentration, MT-4 cells, read-out: CC50 (μg/mL) MT4
# Procedure: The cytotoxicity of the compound against MT4 cells was assessed using a CytoTox-Glo cytotoxicity assay (Promega, Madison, WI, USA). MT-4 cells were cultured in the presence of various concentrations of each test compound for 3 days, and the 50% cytotoxic concentration (CC50) causing a 50% reduction of cell viability was determined by following the manufacturer’s protocol.
# [4] = tested on: HIV-1NL4-3 Nanoluc-sec virus; experiment: microbe, parasite or virus in culture; assay type: cell-based; conditions: for EC50: Human immunodeficiency virus 1, NL43, MT4, 72 h, read-out: EC50 (μg/mL) NL4-3; for selective anti-HIV activity (class symbol printed in EC50 column): CC50/EC50 criterion
# Text: MT4 cells (1 × 10^5 cells mL^−1) in 96 well plates were infected by HIV-1 NL4-3 Nanoluc-sec at a dose of 50 TCID50/well in the presence of each test compound at various concentrations. On Day 3 post-infection, supernatants were collected and assayed for luciferase activity using the Nano-Glo Luciferase Assay System (Promega, Madison, WI, USA). The antiviral potency was defined as the compound concentration that reduces the luciferase activity by 50% (EC50).
# [5] = tested on: HIV replication in C8166 cells; design: method as in PMID 15771893; conditions: in vitro; cited from earlier work
# HIV [6] = tested on: HIV; design: method as in PMID 10757740; conditions: XTT-tetrazolium assay; cited from earlier work
# HIV [7] = conditions: cited from earlier work
compound,measurement,setting,value
"COc1ccc2c(c1)[nH]c1cc(OC)c(C=O)cc12 [3-formyl-2,7-dimethoxycarbazole]",anti-HIV-1 effects EC50,HIV-1,7.4 µg/mL
same,potential therapeutic index (PTI),HIV-1,8.0
"COc1cc2c(c3cnccc13)c1ccccc1n2C [5-methoxy-7-methyl-7H-pyrido[4,3-c]carbazole]",therapeutic index (TI),[1]; H9 lymphocytes,503
same,"EC50, inhibition of HIV replication in H9 lymphocytes",[1],0.0054 µg/mL
"Cc1cc2c(c3c1[nH]c1cc(Cl)c(O)cc13)C(=O)N(CCN(C)C)C2=O [8-Chloro-2-[2-(dimethylamino)ethyl]-9-hydroxy-5-methylpyrrolo[3,4-c]carbazole-1,3(2H,6H)-dione]",strand-transfer inhibitory activity,[2],potent strand-transfer inhibitory activity
"Cc1cn([C@H]2C[C@H](N=[N+]=[N-])[C@@H](CO)O2)c(=O)[nH]c1=O [AZT, azidothymidine]",CC50 at 3 days,[3],> 0.1 µg/mL
same,EC50,[4],0.0055 ± 0.0018 µg/mL
"COC(=O)c1cc2c(cc1C)[nH]c1ccccc12 [Compound 1, 2-methyl-9H-carbazole-3-methyl carboxylate]",CC50 at 3 days,[3],17 ± 2.5 µg/mL
same,TI (CC50/EC50; SI in text),[4]; CC50 MT4 / EC50 NL4-3,7.1
same,EC50,[4],2.4 ± 0.53 µg/mL
"COc1ccc(OC)c2c1[nH]c1cc(O)c(C)cc12 [Compound 2, 5,8-dimethoxy-3-methyl-9H-carbazol-2-ol]",CC50 at 3 days,[3],15.2 ± 3.1 µg/mL
same,EC50,[4],3.7 µg/mL
"COc1ccc2c(c1)[nH]c1ccc(C(=O)O)cc12 [Compound 3, clausine N]",selective anti-HIV activity (class symbol printed in EC50 column),[4],*- ^d (no selective anti-HIV activity (CC50/EC50 < 5))
"CC1(C)C=Cc2c(c(C=O)cc3c2[nH]c2c(O)cccc23)O1 [Compound 4, heptazolicine]",selective anti-HIV activity (class symbol printed in EC50 column),[4],*- ^d (no selective anti-HIV activity (CC50/EC50 < 5))
"CC1(C)C=Cc2c(ccc3c2[nH]c2cc(O)c(C=O)cc23)O1 [Compound 5, clauszoline B]",selective anti-HIV activity (class symbol printed in EC50 column),[4],*- ^d (no selective anti-HIV activity (CC50/EC50 < 5))
"O=Cc1ccc2[nH]c3cc(O)ccc3c2c1 [Compound 7, 7-dihydroxy-9H-carbazole-3-carboxaldehyde]",CC50 at 3 days,[3],> 25 µg/mL
same,EC50,[4],> 25 µg/mL
"COc1ccc2[nH]c3c(O)cc(C=O)cc3c2c1 [Compound 8, clausine I]",selective anti-HIV activity (class symbol printed in EC50 column),[4],*- ^d (no selective anti-HIV activity (CC50/EC50 < 5))
COc1cc2[nH]c3ccccc3c2cc1C=O [O-methylmukonal],anti-HIV-1 effects EC50,HIV-1,2.7 µg/mL
same,potential therapeutic index (PTI),HIV-1,56.7
COc1ccc2c(c1)[nH]c1cc(OC)c(C(=O)O)cc12 [clauszoline-J],anti-HIV-1 effects EC50,HIV-1,8.2 µg/mL
same,potential therapeutic index (PTI),HIV-1,1.6
COc1ccc2[nH]c3cc(O)c(C)cc3c2c1CC=C(C)C [glybomine B],"IC50, inhibition of HIV replication in C8166 cells",[5],9.73 µg/mL
Cc1cc2c(cc1O)[nH]c1ccc3c(c12)C=CC(C)(C)O3 [glycoborinine],"IC50, inhibition of HIV replication in C8166 cells",[5],4.47 µg/mL
CC(C)=CCc1cc2c(cc1O)[nH]c1ccc(C)cc12 [siamenol],HIV-inhibitory activity EC50,HIV [6],2.6 µg/mL
same,maximum protection,HIV [6],50–60%
C[C@@]1(C(=O)O)[C@@H](O)CC[C@]2(C)c3cc4c(cc3CC[C@@H]12)[nH]c1ccccc14 [xiamycin],anti-HIV activity,HIV [7],selective anti-HIV activity
clausine-O [Compound 6],selective anti-HIV activity (class symbol printed in EC50 column),[4],*- ^d (no selective anti-HIV activity (CC50/EC50 < 5))
